Measurements reported in patent US10301286B2, “Piperazine derivative” (Astellas Pharma Inc., priority 2015, dated 2019).
Counter-ions that a name gives are not always drawn.

How the values were obtained:
human MC4 receptor = human MC4 receptor (Homo sapiens (Human), UniProt P32245); experiment: Human MC receptor activation, cAMP production in cells expressing human MC4 receptor; type: cell-based; settings: FreeStyle 293-F cells transiently expressing human MC4 receptor, α-MSH maximum = 100%
Source text: (1) Construction of Human MC Receptor-Expressing Vector
A human MC4 receptor gene (GenBank Accession No.: NM_005912.2), a human MC1 receptor gene (GenBank Accession No.: NM_002386.3), or a human MC3 receptor gene (GenBank Accession No.: NM_019888.3) was introduced into an expression vector pcDNA™ 3.1/V5-His TOPO (registered trademark) (Thermo Fisher Scientific Inc.).
(2) Construction of Cells Transiently Expressing Human MC Receptor
An expression vector for a human MC4, MC1, or MC3 receptor was introduced into FreeStyle™ 293-F cell (Thermo Fisher Scientific Inc., product number: R790-07). For the introduction, electroporation was employed. That is, 1×10^7 FreeStyle™ 293-F cell were suspended in 80 μL of an electroporation buffer (Thermo Fisher Scientific Inc., product number: B201-100), and 20 μg of the expression vector was added thereto. The resultant was put into a cuvette (OC-100 Processing Assembly, MaxCyte, Inc.) and electroporated with MaxCyte SIX (registered trademark) (MaxCyte, Inc.). The cells were cultured over one day, suspended in a Cell Banker (registered trademark) 1 (JUJI FIELD Inc.), product number: BLC-1), and stored frozen until their use.
(3) Measurement of Amount of cAMP Produced
Measurement was carried out by using a LANCE (registered trademark) Ultra cAMP Kit (PerkinElmer, Inc.) in accordance with the attached instructions. That is, after dissolution in DMSO, the test compound (a final concentration of 1 pM to 30 μM) diluted with an assay buffer (Hank's balanced salt solution, 5 mM 4-(2-hydroxyethyl)-1-piperazineethanesulfonic acid (HEPES), 0.5 mM 3-isobutyl-1-methylxanthine (IBMX), 0.1% bovine serum albumin, pH 7.4), or α-MSH (Bachem Inc., a final concentration of 1 pM to 30 μM) was added to OptiPlate-384 (PerkinElmer, Inc.). Furthermore, a suspension of cells transiently expressing the human MC4, MC1, or MC3 receptor prepared by using the assay buffer was added thereto at 1,000 cells/well, followed by being left to stand at room temperature for about 1 hour. Thereafter, an Eu-cAMP tracer solution and an ULight™-anti-cAMP solution were added thereto, followed by being left to stand at room temperature for about 1 hour. The amount of cAMP was calculated using EnVision (registered trademark) (PerkinElmer Inc.).
For the agonistic activity, an efficacy (EC50 (μM)) was calculated by a non-linear regression method with a Sigmoid-Emax model, by defining the maximum reaction with α-MSH as 100% and the reaction with the vehicle alone as 0%, respectively.

Male Wistar rats = experiment: Action on rat urethral pressure (phenylephrine-induced increase); type: in vivo; settings: anesthetized rats, intravenous, dose giving 40% inhibition of phenylephrine-induced urethral pressure ΔAUC, read-out: ID40
Procedure: The present Test Example was carried out by partially modifying the technique reported as a testing system for evaluating an urethral resistance-reducing action (European Journal of Pharmacology, 679, 127-131 (2012)). Male Wistar rats (Charles River Laboratories Japan, Inc.) were anesthetized with urethane (1.2 g/kg ip), and placed in a supine position. The lower abdominal portion was midline-incised, and thus, the bladder was exposed. The bladder apex was incised, a microchip pressure transducer catheter (3.5 Fr, Millar) was inserted into the inside of the urethra, and then placed therein. In addition, a cannula for administration of a drug was placed into the femoral vein. After stabilization of the urethral pressure, phenylephrine hydrochloride (Sigma-Aldrich, 30 μg/kg) was administered intravenously to induce an increase in the urethral pressure. At an interval of about 30 minutes, this operation was repeated twice or more to confirm the stability of the reaction of a phenylephrine hydrochloride-induced increase in the urethral pressure. Thereafter, a test compound (dissolved in 20% dimethyl acetamide, 10% Cremophor (registered trademark) and 70% physiological saline) was intravenously administered, and then 5 minutes later, phenylephrine hydrochloride was administered. The procedure of administration of the test compound and administration of phenylephrine hydrochloride was repeated at an interval of about 30 minutes, and 3 to 5 doses of the test compound was evaluated (the test compound was administered at increasing doses). The data of reaction was introduced into a personal computer through PowerLab (registered trademark) (ADInstruments, Inc.), and analyzed with LabChart (registered trademark) (ADInstruments, Inc.). For the evaluation, the value of the area under the urethral pressure (mmHg·s) for one minute before and after administration of phenylephrine hydrochloride was determined to calculate the difference between before and after administration of phenylephrine hydrochloride (ΔAUC value). By taking the ΔAUC value obtained before administering the test compound as 100%, the ratio (reaction rate) of the ΔAUC value of the test compound at each dose was calculated. The rate at which the obtained reaction rate becomes 60% (40% as an inhibition rate) was defined as ID40, and the ID40 values of the test compounds were calculated by non-linear regression.

Male SD rats = experiment: Rat erection-inducing action; type: in vivo; settings: 10 mg/kg intravenously, erections up to one hour after administration, vs vehicle, P<0.05
Procedure: Male SD rats (Charles River Laboratories Japan, Inc.) were used. A test compound (10 mg/kg) or the vehicle (20% dimethyl acetamide, 10% Cremophor (registered trademark), 70% physiological saline) was administered intravenously through the tail vein. After administration, the rats were transferred to transparent observation cages made of plastic to measure the erection times of up to one hour after administration. The measurements were carried out for five groups (3 to 7 animals per group): vehicle groups, Example compound groups (Ex 87, 88, and 89), and THIQ group, which had been known as an MC4 receptor agonist (J. Med. Chem., 45, 4589-4593 (2002)), as a positive control. For a statistical significance test, Dunnett's multiple comparison test was used for the comparison with vehicle control group, and it was determined whether there was an erection-inducing effect with a statistically significant difference (P<0.05).

Chain of human MC4 receptor (P32245 whole entry): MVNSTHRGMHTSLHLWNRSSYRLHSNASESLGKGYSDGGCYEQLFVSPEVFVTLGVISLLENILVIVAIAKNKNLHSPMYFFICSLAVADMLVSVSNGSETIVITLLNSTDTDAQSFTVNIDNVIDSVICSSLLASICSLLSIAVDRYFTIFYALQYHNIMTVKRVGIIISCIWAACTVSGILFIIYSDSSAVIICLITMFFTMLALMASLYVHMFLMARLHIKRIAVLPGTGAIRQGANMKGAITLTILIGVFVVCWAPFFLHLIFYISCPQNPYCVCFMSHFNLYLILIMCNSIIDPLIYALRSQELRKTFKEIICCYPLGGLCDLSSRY

EC50 (human MC4 receptor)	Compound	ED40 (Male Wistar rats)	erection-inducing effect (Male SD rats)
0.0015 µM	Cc1ccc(C[C@@H](C(=O)O)N2CCN(C(=O)[C@@H]3CN(C(C)(C)C)C[C@H]3c3ccc(Cl)cc3F)[C@@H](C)C2)c(F)c1 [Example 4, (2S)-2-[(3S)-4-{[(3S,4R)-1-tert-butyl-4-(4-chloro-2-fluorophenyl)pyrrolidin-3-yl]carbonyl}-3-methylpiperazin-1-yl]-3-(2-fluoro-4-methylphenyl)propanoic acid dihydrochloride]	0.0094 mg/kg	
0.025 µM	C[C@H]1CN([C@@H](Cc2ccc3c(c2)CCC3)C(=O)O)CCN1C(=O)[C@@H]1CN(C(C)(C)C)C[C@H]1c1ccc(F)cc1F [Example 5, (2S)-2-[(3S)-4-{[(3S,4R)-1-tert-butyl-4-(2,4-difluorophenyl)pyrrolidin-3-yl]carbonyl}-3-methylpiperazin-1-yl]-3-(2,3-dihydro-1H-inden-5-yl)propanoic acid dihydrochloride]	0.13 mg/kg	
0.0032 µM	CCC[C@H]1CN([C@@H](Cc2ccc3ccccc3c2)C(=O)O)CCN1C(=O)[C@@H]1CN(C(C)(C)C)C[C@H]1c1ccc(F)cc1F [Example 9]	0.047 mg/kg	
0.017 µM	Cc1ccc(C[C@@H](C(=O)O)N2CCN(C(=O)[C@@H]3CN(C(C)(C)C)C[C@H]3c3ccc(Cl)cc3F)[C@@H](C)C2)cc1 [Example 11]	0.088 mg/kg	
0.00096 µM	Cc1cc(F)c(C[C@@H](C(=O)O)N2CCN(C(=O)[C@@H]3CN(C(C)(C)C)C[C@H]3c3ccc(Cl)cc3F)[C@@H](C)C2)c(F)c1 [Example 76]	0.0047 mg/kg	
0.011 µM	Cc1ccc(C[C@@H](C(=O)O)N2CCN(C(=O)[C@@H]3CN(C4CCOCC4)C[C@H]3c3ccc(Cl)cc3F)[C@@H](C)C2)c(F)c1 [Example 87, (2S)-2-[(3S)-4-{[(3S,4R)-4-(4-chloro-2-fluorophenyl)-1-(tetrahydro-2H-pyran-4-yl)pyrrolidin-3-yl]carbonyl}-3-methylpiperazin-1-yl]-3-(2-fluoro-4-methylphenyl)propanoic acid dihydrochloride]	0.04 mg/kg	did not exhibit an erection-inducing effect
0.012 µM	Cc1cc(C)c(C[C@@H](C(=O)O)N2CCN(C(=O)[C@@H]3CN(C4CCOCC4)C[C@H]3c3ccc(Cl)cc3F)[C@@H](C)C2)c(F)c1 [Example 88]	0.04 mg/kg	did not exhibit an erection-inducing effect
0.003 µM	Cc1cc(C)c(C[C@@H](C(=O)O)N2CCN(C(=O)[C@@H]3CN(C(C)(C)C)C[C@H]3c3ccc(Cl)cc3F)[C@@H](C)C2)c(C)c1 [Example 89]	0.024 mg/kg	did not exhibit an erection-inducing effect
